Assay results from ChEMBL document CHEMBL3822383, “Coumarin sulfonamides derivatives as potent and selective COX-2 inhibitors with efficacy in suppressing cancer proliferation and metastasis” (Bioorg Med Chem Lett, 2016).
The source made the active and inactive calls. The rule behind the calls is not given here.

How the values were obtained:
[1] = test system: HeLa; test: Induction of apoptosis in human HeLa cells assessed as late apoptotic cells at 3 uM after 24 hrs by Annexin V/propidium iodide based flow cytometric analysis (reference value: 2.21 %); type: functional
[2] = test system: HeLa; test: Induction of apoptosis in human HeLa cells assessed as necrotic cells at 4 uM after 24 hrs by Annexin V/propidium iodide based flow cytometric analysis (reference value: 0.441 %); type: functional
[3] = test system: HeLa; test: Reduction in cell migration in human HeLa cells up to 4 uM by transwell migration assay; type: functional, cell-based
[4] = test system: HeLa; test: Induction of apoptosis in human HeLa cells assessed as late apoptotic cells at 8 uM after 24 hrs by Annexin V/propidium iodide based flow cytometric analysis (reference value: 3.16 %); type: functional
[5] = test system: HeLa; test: Induction of apoptosis in PGE2-induced human HeLa cells assessed as late apoptotic cells at 3 uM after 24 hrs by Annexin V/propidium iodide based flow cytometric analysis; type: functional, cell-based
[6] = test system: HeLa; test: Induction of apoptosis in human HeLa cells assessed as viable cells at 3 uM after 24 hrs by Annexin V/propidium iodide based flow cytometric analysis (reference value: 96 %); type: functional; details: read-out: Activity
[7] = test system: A549; test: cells; details: Homo sapiens, A549, 24 h
Description: Antiproliferative activity against human A549 cells after 24 hrs by MTT assay

[8] = test system: HeLa; test: Induction of apoptosis in human HeLa cells assessed as viable cells at 2 uM after 24 hrs by Annexin V/propidium iodide based flow cytometric analysis (reference value: 95.5 %); type: functional; details: read-out: Activity
[9] = test system: HeLa; test: Inhibition of cell adhesion in human HeLa cells assessed as reduction in cell attachment at 2 uM after 1 hr by MTT assay; type: functional
[10] = test system: HeLa; test: Induction of apoptosis in human HeLa cells assessed as early apoptotic cells at 8 uM after 24 hrs by Annexin V/propidium iodide based flow cytometric analysis (reference value: 0.902 %); type: functional
[11] = test system: HeLa; test: Induction of apoptosis in human HeLa cells assessed as late apoptotic cells at 2 uM after 24 hrs by Annexin V/propidium iodide based flow cytometric analysis (reference value: 3.16 %); type: functional
[12] = biological target: Prostaglandin G/H synthase 1 (Homo sapiens, UniProt P23219); test: Inhibition of human COX1 using arachidonic acid assessed as production of PGF2alpha after 5 mins by ELISA
Sequence of Prostaglandin G/H synthase 1 (P23219 whole entry): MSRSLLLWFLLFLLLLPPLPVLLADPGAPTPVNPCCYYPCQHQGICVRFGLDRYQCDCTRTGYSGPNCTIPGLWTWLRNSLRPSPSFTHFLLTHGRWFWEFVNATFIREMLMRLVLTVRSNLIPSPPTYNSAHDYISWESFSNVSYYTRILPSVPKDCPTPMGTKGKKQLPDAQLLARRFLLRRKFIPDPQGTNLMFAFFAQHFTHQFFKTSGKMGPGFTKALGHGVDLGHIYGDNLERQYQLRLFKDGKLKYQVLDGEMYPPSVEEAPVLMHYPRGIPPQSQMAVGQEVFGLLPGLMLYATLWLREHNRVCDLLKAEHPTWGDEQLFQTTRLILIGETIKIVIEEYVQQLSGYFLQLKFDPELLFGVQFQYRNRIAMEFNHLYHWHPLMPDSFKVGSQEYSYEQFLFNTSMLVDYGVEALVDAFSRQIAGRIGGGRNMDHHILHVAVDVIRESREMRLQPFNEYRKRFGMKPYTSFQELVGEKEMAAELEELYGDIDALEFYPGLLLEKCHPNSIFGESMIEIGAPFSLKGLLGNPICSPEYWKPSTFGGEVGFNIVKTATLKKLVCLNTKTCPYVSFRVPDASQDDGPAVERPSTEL

[13] = cells; details: Homo sapiens, L02, 24 h
Description: Antiproliferative activity against human LO2 cells after 24 hrs by MTT assay

[14] = test system: HeLa; test: Induction of apoptosis in PGE2-induced human HeLa cells assessed as viable cells at 3 uM after 24 hrs by Annexin V/propidium iodide based flow cytometric analysis; type: functional, cell-based
[15] = test system: HeLa; test: Induction of apoptosis in human HeLa cells assessed as necrotic cells at 1 uM after 24 hrs by Annexin V/propidium iodide based flow cytometric analysis (reference value: 0.441 %); type: functional
[16] = test system: HeLa; test: Induction of apoptosis in human HeLa cells assessed as early apoptotic cells at 3 uM after 12 hrs by Annexin V/propidium iodide based flow cytometric analysis (reference value: 1.61 %); type: functional
[17] = test system: HeLa; test: Reduction in cell invasion in human HeLa cells up to 4 uM by transwell invasion assay; type: functional, cell-based
[18] = test system: HeLa; test: Induction of apoptosis in human HeLa cells assessed as early apoptotic cells at 1 uM after 24 hrs by Annexin V/propidium iodide based flow cytometric analysis (reference value: 0.902 %); type: functional
[19] = test system: HeLa; test: Induction of apoptosis in human HeLa cells assessed as necrotic cells at 3 uM after 12 hrs by Annexin V/propidium iodide based flow cytometric analysis (reference value: 0.441 %); type: functional
[20] = test system: HeLa; test: Induction of apoptosis in PGE2-induced human HeLa cells assessed as necrotic cells at 3 uM after 24 hrs by Annexin V/propidium iodide based flow cytometric analysis; type: functional, cell-based
[21] = test system: HepG2; test: cells; details: Homo sapiens, HepG2, 24 h
Description: Antiproliferative activity against human HepG2 cells after 24 hrs by MTT assay

[22] = test system: HeLa; test: Induction of apoptosis in human HeLa cells assessed as late apoptotic cells at 4 uM after 24 hrs by Annexin V/propidium iodide based flow cytometric analysis (reference value: 3.16 %); type: functional
[23] = cells; details: Homo sapiens, HEK-293T, 24 h
Description: Antiproliferative activity against human 293T cells after 24 hrs by MTT assay

[24] = test system: HeLa; test: Induction of apoptosis in human HeLa cells assessed as early apoptotic cells at 2 uM after 24 hrs by Annexin V/propidium iodide based flow cytometric analysis (reference value: 0.902 %); type: functional
[25] = test system: HeLa; test: Induction of apoptosis in human HeLa cells assessed as viable cells at 8 uM after 24 hrs by Annexin V/propidium iodide based flow cytometric analysis (reference value: 95.5 %); type: functional; details: read-out: Activity
[26] = test system: HeLa; test: Antiproliferative activity in PGE2-induced human HeLa cells at 2 uM after 12 to 24 hrs by MTT assay; type: functional, cell-based
[27] = test system: HeLa; test: Induction of apoptosis in human HeLa cells assessed as necrotic cells at 3 uM after 12 hrs by Annexin V/propidium iodide based flow cytometric analysis (reference value: 0.207 %); type: functional
[28] = test system: HeLa; test: Induction of apoptosis in human HeLa cells assessed as viable cells at 1 uM after 24 hrs by Annexin V/propidium iodide based flow cytometric analysis (reference value: 95.5 %); type: functional; details: read-out: Activity
[29] = test system: HeLa; test: Induction of apoptosis in human HeLa cells assessed as viable cells at 3 uM after 12 hrs by Annexin V/propidium iodide based flow cytometric analysis (reference value: 96 %); type: functional; details: read-out: Activity
[30] = test system: HeLa; test: cells; details: Homo sapiens, 24 h
Description: Antiproliferative activity against human HeLa cells after 24 hrs by MTT assay

[31] = test system: HeLa; test: Inhibition of PGE2 secretion in human HeLa cells at 0.1 uM after 24 hrs by EIA monoclonal assay; type: functional, cell-based
[32] = test system: HeLa; test: Inhibition of cell adhesion in human HeLa cells assessed as reduction in cell attachment after 1 hr by MTT assay; type: functional, cell-based
[33] = test system: HeLa; test: Induction of apoptosis in human HeLa cells assessed as early apoptotic cells at 4 uM after 24 hrs by Annexin V/propidium iodide based flow cytometric analysis (reference value: 0.902 %); type: functional
[34] = test system: HeLa; test: Induction of apoptosis in human HeLa cells assessed as necrotic cells at 3 uM after 36 hrs by Annexin V/propidium iodide based flow cytometric analysis (reference value: 0.207 %); type: functional
[35] = test system: HeLa; test: Induction of apoptosis in human HeLa cells assessed as viable cells at 3 uM after 36 hrs by Annexin V/propidium iodide based flow cytometric analysis (reference value: 96 %); type: functional; details: read-out: Activity
[36] = test system: HeLa; test: Induction of apoptosis in PGE2-induced human HeLa cells assessed as early apoptotic cells at 3 uM after 24 hrs by Annexin V/propidium iodide based flow cytometric analysis; type: functional, cell-based
[37] = test system: HeLa; test: Induction of apoptosis in human HeLa cells assessed as viable cells at 4 uM after 24 hrs by Annexin V/propidium iodide based flow cytometric analysis (reference value: 95.5 %); type: functional; details: read-out: Activity
[38] = test system: HeLa; test: Reduction in cell invasion in PGE2-induced human HeLa cells at 2 uM by transwell invasion assay; type: functional, cell-based
[39] = test system: HeLa; test: Induction of apoptosis in human HeLa cells assessed as late apoptotic cells at 3 uM after 36 hrs by Annexin V/propidium iodide based flow cytometric analysis (reference value: 2.21 %); type: functional
[40] = test system: HeLa; test: Inhibition of cell adhesion in PGE2-induced human HeLa cells assessed as reduction in cell attachment at 2 uM after 12 hrs by MTT assay; type: functional, cell-based
[41] = cells; details: Mus musculus, B16-F10, 24 h
Description: Antiproliferative activity against mouse B16F10 cells after 24 hrs by MTT assay

[42] = test system: HeLa; test: Induction of apoptosis in human HeLa cells assessed as late apoptotic cells at 1 uM after 24 hrs by Annexin V/propidium iodide based flow cytometric analysis (reference value: 3.16 %); type: functional
[43] = test system: HeLa; test: Induction of apoptosis in human HeLa cells assessed as early apoptotic cells at 3 uM after 36 hrs by Annexin V/propidium iodide based flow cytometric analysis (reference value: 1.61 %); type: functional
[44] = test system: HeLa; test: Induction of apoptosis in human HeLa cells assessed as necrotic cells at 2 uM after 24 hrs by Annexin V/propidium iodide based flow cytometric analysis (reference value: 0.441 %); type: functional
[45] = test system: HeLa; test: Induction of apoptosis in human HeLa cells assessed as necrotic cells at 3 uM after 24 hrs by Annexin V/propidium iodide based flow cytometric analysis (reference value: 0.207 %); type: functional
[46] = test system: HeLa; test: Induction of apoptosis in human HeLa cells assessed as early apoptotic cells at 3 uM after 24 hrs by Annexin V/propidium iodide based flow cytometric analysis (reference value: 1.61 %); type: functional
[47] = test system: HeLa; test: Induction of apoptosis in human HeLa cells assessed as late apoptotic cells at 3 uM after 12 hrs by Annexin V/propidium iodide based flow cytometric analysis (reference value: 2.21 %); type: functional
[48] = test system: HeLa; test: Reduction in cell migration in PGE2-induced human HeLa cells at 2 uM by transwell migration assay; type: functional, cell-based
[49] = test system: HeLa; test: Induction of apoptosis in human HeLa cells assessed as necrotic cells at 8 uM after 24 hrs by Annexin V/propidium iodide based flow cytometric analysis (reference value: 0.441 %); type: functional

**Q.** Which Activity [1] does the source give for `NS(=O)(=O)c1ccc(-n2nc(C(=O)N/N=C/c3c(Cl)c4ccccc4oc3=O)cc2-c2ccc(C(F)(F)F)cc2)cc1` here?
**A.** Its Activity is 8.83%.

**Q.** And the Activity [2]?
**A.** Its Activity is 2.14%.

**Q.** And the Activity [3]?
**A.** Its Activity is “Dose-dependent effect”.

**Q.** And the Activity [4]?
**A.** Its Activity is 15.6%.

**Q.** What about the Activity [5] of the same compound?
**A.** The Activity was “Active”.

**Q.** What about the viability at 3 µM [6] of the same compound?
**A.** The viability at 3 µM was 76.3%.

**Q.** What about the IC50 [7] of the same compound?
**A.** Its IC50 is 2.56 µM.

**Q.** And the viability at 2 µM [8]?
**A.** Its viability at 2 µM is 85.9%.

**Q.** And the inhibition at 2 µM [9]?
**A.** Its inhibition at 2 µM is 60%.

**Q.** And the Activity [10]?
**A.** Its Activity is 33.6%.

**Q.** And the Activity [11]?
**A.** Its Activity is 6.29%.

**Q.** And the IC50 [12]?
**A.** The IC50 was 48.2 µM.

**Q.** What about the IC50 [13] of the same compound?
**A.** Its IC50 is 267 µM.

**Q.** And the Activity [14]?
**A.** Its Activity is “Active”.

**Q.** What about the Activity [15] of the same compound?
**A.** Its Activity is 0.301%.

**Q.** What about the Activity [16] of the same compound?
**A.** Its Activity is 3.79%.

**Q.** What about the Activity [17] of the same compound?
**A.** Its Activity is “Active”.

**Q.** What about the Activity [18] of the same compound?
**A.** Its Activity is 2.12%.

**Q.** What about the Activity [19] of the same compound?
**A.** Its Activity is 0.276%.

**Q.** And the Activity [20]?
**A.** The Activity was “Active”.

**Q.** What about the IC50 [21] of the same compound?
**A.** The IC50 was 0.85 µM.

**Q.** What about the Activity [22] of the same compound?
**A.** The Activity was 11%.

**Q.** And the IC50 [23]?
**A.** Its IC50 is 234 µM.

**Q.** And the Activity [24]?
**A.** Its Activity is 7.64%.

**Q.** And the viability at 8 µM [25]?
**A.** The viability at 8 µM was 49%.

**Q.** What about the Activity [26] of the same compound?
**A.** The Activity was “Active”.

**Q.** What about the Activity [27] of the same compound?
**A.** The Activity was 0.276%.

**Q.** What about the viability at 1 µM [28] of the same compound?
**A.** The viability at 1 µM was 94%.

**Q.** And the viability at 3 µM [29]?
**A.** The viability at 3 µM was 92.9%.

**Q.** What about the IC50 [30] of the same compound?
**A.** The IC50 was 0.36 µM.

**Q.** And the inhibition [31]?
**A.** The inhibition was “Active”.

**Q.** What about the inhibition [32] of the same compound?
**A.** Its inhibition is “Dose-dependent effect”.

**Q.** And the Activity [33]?
**A.** Its Activity is 24.8%.

**Q.** What about the Activity [34] of the same compound?
**A.** The Activity was 1.62%.

**Q.** What about the viability at 3 µM [35] of the same compound?
**A.** Its viability at 3 µM is 66.6%.

**Q.** What about the Activity [36] of the same compound?
**A.** The Activity was “Active”.

**Q.** And the viability at 4 µM [37]?
**A.** The viability at 4 µM was 62%.

**Q.** What about the Activity [38] of the same compound?
**A.** Its Activity is “Active”.

**Q.** And the Activity [39]?
**A.** Its Activity is 10.2%.

**Q.** What about the inhibition [40] of the same compound?
**A.** Its inhibition is “Active”.

**Q.** What about the IC50 [41] of the same compound?
**A.** The IC50 was 2.27 µM.

**Q.** What about the Activity [42] of the same compound?
**A.** Its Activity is 3.58%.

**Q.** And the Activity [43]?
**A.** The Activity was 21.6%.

**Q.** What about the Activity [44] of the same compound?
**A.** The Activity was 0.143%.

**Q.** And the Activity [45]?
**A.** Its Activity is 0.049%.

**Q.** And the Activity [46]?
**A.** The Activity was 14.8%.

**Q.** And the Activity [47]?
**A.** Its Activity is 3.02%.

**Q.** And the Activity [48]?
**A.** Its Activity is “Active”.

**Q.** What about the Activity [49] of the same compound?
**A.** The Activity was 1.82%.
